# Results: patent EP1311486B1, “USES OF THALIPORPHINE OR ITS DERIVATIVES IN TREATMENT OF CARDIAC DISEASES AND PREPARATION OF SAME” (Lotus Pharmaceutical Co., Ltd., priority 2000, dated 2002)
# Several values for one entry are separate records, joined by “and”; a condition that tells them apart may be missing. Identical values can stand only once. Marks after values point to notes of the source that are not given here.
# Columns and labels:
# [1] = system: transient outward potassium current (Ito); assay: Inhibition of transient outward potassium current; settings: rats
# Experimental: Moreover, 3-10µM THP prolongs the action potential duration in the atria or ventricles of both rats and guinea pigs (data not shown).
# [2] = system: rats subjected to 4 hours coronary ligation; assay: Area at risk and infarct size after 4 hours coronary ligation (triphenyl tetrazolium chloride-Evan's blue staining); format: in vivo, rat
# Experimental: Infarct size was determined by the triphenyl tetrazolium chloride-Evan's blue staining technique. The rat was sacrificed after its left descending coronary artery had been occluded for 4 hours. The weight of infarct tissue was expressed as a percentage of total ventricular weight or occluded zone. The difference in infarct size was statistically analyzed using unpaired Student's t-test. Table 4 Area at risk and infarct size in vehicle and THP-treated rats subjected to 4 hours coronary ligation
# The difference in ischemic area and infarct size shown by staining technique after 4 hours of ischemia is evaluated. […] In the vehicle group, the necrotic area expresses either as a percentage of the area at risk (45.2±1.0%) or as a percentage of the total ventricle (19.8±2.2%), indicating the amount of cardiac tissue at risk becomes necrotic. Administration of THP reduces myocardial necrosis extension in a dose dependent manner. This reduction is observed either in the necrotic area/area at risk (38.1±5.0%, 29.0±2.5% and 10.7±1.8%/with 3.5x10^-7, 10^-6, 10^-5 g/kg of THP, respectively) or in the necrotic area/total ventricle (17.9+2.3%, 13.4±1.2% and 5.0±0.9% with 3.5x10^-7, 10^-6, 10^-5 g/kg of THP, respectively).
# [3] = system: Human low density lipoprotein (LDL); assay: Copper-induced lipid peroxidation of LDL (TBARS formation); format: biochemical; settings: LDL 100µg/ml, 37°C, CuSO4 12 hours
# Experimental: Human low density lipoprotein (LDL, 100µg/ml) was preincubated with DMSO (0.1%, basal and control) or various concentrations of THP at 37°C for 10 minutes, and then CuSO4 was added, except for basal, and incubated for another 12 hours to determine the impact of THP on lipid peroxidation.
# The impact of THP on lipid peroxidation is further assessed by evaluating its effect on the formation of TBARS (thiobarbituric acid-reactive substance) from LDL. Exposure of LDL to CuSO4 within 12 hours results in the peroxidation of LDL, as indicated by the increased content of TBARS (FIG. 3).
# inward calcium current = settings: Su MJ, et al., Eur. J. Pharmacol., 1994; cited from earlier work
# in vivo anesthetized rat = assay: Ischemia-induced arrhythmias in the anesthetized rat (30 minutes coronary occlusion)
# Experimental: Myocardial ischemia was performed by a temporary tightening of the silk ligature around the left main coronary artery. Reperfusion was achieved by releasing the tension applied to the ligature (operated groups). Sham operated animals underwent all surgical procedures, apart from the fact that the silk, passing around the left coronary artery, was not tied (sham groups). Animals were infused with a bolus of THP (3.5x10^-7, 3.5x10^-6, 3.5x10^-5 g/kg), L-NAME (N^∞-nitro-L-arginine methyl ester; 1x10^-3 g/kg) or vehicle (dimethyl sulfoxide/ NaCl 0.9%, 1:10^3; v/v) from a jugular vein 15 minutes before coronary occlusion. The coronary artery was occluded for 30 minutes or 5 minutes followed by 30 minutes reperfusion and with the animals then divided randomly in the following groups: (1) sham + vehicle; (2) sham + THP (3.5x10^-5g/kg); (3) operated + vehicle; (4) operated + THP (3.5x10^-7 g/kg); (5) operated + THP (3.5x10^-6 g/kg); (6) operated + THP (3.5x10^-5 g/kg); (7) operated + L-NAME (1x10^-3 g/kg) + THP (3.5x10^-5 g/kg). Before and during the ischemia or reperfusion period, heart rate (HR), blood pressure (BP) and ECG changes were recorded. Ventricular ectopic activity was evaluated according to the diagnostic criteria advocated in the Lambeth Convention. The incidence and duration of ventricular tachyarrhythmias, including ventricular tachycardia (VT) and ventricular fibrillation (VF), in surviving animals was determined. The Mann-Whitney rank-sum test was used to analyze the differences in the duration of VT and VF between vehicle and drug treated groups. The BP and HR changes between vehicle and drug treated rats in the arrhythmia study were analyzed by ANOVA (analysis of variance) followed by Bonferroni's test. The difference in the percentage incidence of VT, VF and mortality rate was analyzed with a Chi-square test. Table 2 Effect of THP on ischemia-induced arrhythmias in the in vivo anesthetized rat
# In ischemic condition, severe ventricular arrhythmias in the vehicle group begins after 6-7 minutes of coronary artery occlusion, peaks after 8-12 minutes, and normally subsides after approximately 15 minutes from initiation. The duration of VF is calculated to be 32.1±8.9 seconds, and the duration of VT is 36.8±8.8 seconds. […] Administration of THP at 3.5x10^-5 g/kg results in a decrease of the incidence of VT and VF to 10% and 0%, respectively (p<0.05). […] A particular important finding is the very effective reduction of mortality even at very low dose of THP 3.5x 10^-7 g/kg.
compound,measurement,setting,value
"COc1cc2c(cc1OC)-c1c(O)c(OC)cc3c1C(C2)N(C)CC3 (single isomer, unassigned; (+)) [THP, (+)-Thaliporphine]",transient outward potassium current (Ito),[1],markedly inhibit
same,Area at risk (% of ventricle),[2]; THP 3.5x10^-5 g/kg,46.9±0.5 % of ventricle
same,Necrotic (% of Area at risk),[2]; THP 3.5x10^-5 g/kg,10.7±1.8 % of Area at risk
same,Necrotic (% of ventricle),[2]; THP 3.5x10^-5 g/kg,5.0±0.9 % of ventricle
same,Area at risk (% of ventricle),[2]; THP 3.5x10^-6 g/kg,46.5±0.9 % of ventricle
same,Necrotic (% of Area at risk),[2]; THP 3.5x10^-6 g/kg,29.0±2.5 % of Area at risk
same,Necrotic (% of ventricle),[2]; THP 3.5x10^-6 g/kg,13.4±1.2 % of ventricle
same,Area at risk (% of ventricle),[2]; THP 3.5x10^-7 g/kg,47.0±0.6 % of ventricle
same,Necrotic (% of Area at risk),[2]; THP 3.5x10^-7 g/kg,38.1±5.0 % of Area at risk
same,Necrotic (% of ventricle),[2]; THP 3.5x10^-7 g/kg,17.9+2.3 % of ventricle and 17.9±2.3 % of ventricle
same,IC50,[3],15.7 µM
same,inward calcium current,inward calcium current,enhance
same,Mortality (%),in vivo anesthetized rat; THP 3.5x10^-5 g/kg i.v.,0%
same,VF Duration,in vivo anesthetized rat; THP 3.5x10^-5 g/kg i.v.,0.0 ± 0.0 s
same,VF Incidence(%),in vivo anesthetized rat; THP 3.5x10^-5 g/kg i.v.,0%
same,VT Duration,in vivo anesthetized rat; THP 3.5x10^-5 g/kg i.v.,0.3 ± 0.3 s
same,VT Incidence(%),in vivo anesthetized rat; THP 3.5x10^-5 g/kg i.v.,10%
same,Mortality (%),in vivo anesthetized rat; THP 3.5x10^-6 g/kg i.v.,0%
same,VF Duration,in vivo anesthetized rat; THP 3.5x10^-6 g/kg i.v.,0.5 ± 0.5 s
same,VF Incidence(%),in vivo anesthetized rat; THP 3.5x10^-6 g/kg i.v.,10%
same,VT Duration,in vivo anesthetized rat; THP 3.5x10^-6 g/kg i.v.,5.7 ± 3.3 s
same,VT Incidence(%),in vivo anesthetized rat; THP 3.5x10^-6 g/kg i.v.,50* %
same,Mortality (%),in vivo anesthetized rat; THP 3.5x10^-7 g/kg i.v.,0%
same,VF Duration,in vivo anesthetized rat; THP 3.5x10^-7 g/kg i.v.,6.7 ± 4.9 s
same,VF Incidence(%),in vivo anesthetized rat; THP 3.5x10^-7 g/kg i.v.,20%
same,VT Duration,in vivo anesthetized rat; THP 3.5x10^-7 g/kg i.v.,16.1 ± 7.4 s
same,VT Incidence(%),in vivo anesthetized rat; THP 3.5x10^-7 g/kg i.v.,60%
